The values below are quoted from earlier work in patent US20070154567A1, “Use of mercury to treat cancer” (priority 2006, published 2007).

The data set relates to mammary and sarcoma tumor growth in seeded wounds. Conditions: 0.2% w/v solution administered to the wound site, mice; cited from earlier work.

Regarding `[Cl][Hg][Cl]` [mercuric chloride], the “mammary and sarcoma tumor growth in seeded wounds” value was “reduce”.
